# Measured values as given in patent US11352399B2, “Peptide for toll-like receptor (TLR) inhibition and pharmaceutical composition comprising same” (GENESEN CO., LTD., priority 2017, dated 2022).
# Legend:
# [1] = test system: RAW 264.7 cells; experiment: NO secretion level in RAW 264.7 culture supernatant; assay type: cell-based, mouse; conditions: TIP1 and LPS
# Experimental: RAW 264.7 cells and mBMDM cells were dispensed into 96-well plates (BD Biosciences) to a cell number of 2×10^5 cells/well and incubated overnight. Then, a NO level of the culture supernatant was measured using a NO detection kit (iNtRON Biotechnology Inc., Seongnam, Korea). Absorbance was measured at 550 nm using a microplate reader spectrophotometer (Molecular Devices Inc.), and the results were analyzed using Softmax Pro 5.3 software (Molecular Devices Inc.).
# In addition, according to the method described in Example 2-7, a NO level in the culture supernatant of RAW 264.7 cells was measured using a NO detection kit. The results are illustrated in FIGS. 5(a)-5(c).
# [2] = test system: NLRP3 inflammasome; experiment: Western blotting of NLRP3 inflammasome molecules in LPS/ATP-treated mBMDM cells; assay type: cell-based, mouse
# [3] = test system: NLRP3 inflammasome; experiment: IL-1β secretion (ELISA) in LPS/ATP-treated mBMDM cells; assay type: cell-based, mouse; conditions: TIP1 and LPS/ATP
# [4] = biological target: T1, BB-loop and C-terminal region of the TIR domain of TLR4 (Homo sapiens, UniProt O00206); experiment: Surface plasmon resonance (SPR) assay; assay type: binding; conditions: conclusion of Experimental Example 8; no SPR constants printed
# T1 construct: purchased Peptron, Inc; host or cells: chemical synthesis
# Experimental: Surface plasmon resonance assay was performed using a ProteOn XPR36 instrument (Bio-Rad Laboratories, Inc.) with a ProteOn NLC sensor chip. Specifically, a synthetic peptide encoding BB-loop ([…]) (SEQ ID NO: 54) and C-terminal region ([…]) (SEQ ID NO: 55) of the TIR domain was immobilized on the surface of the NLC sensor chip using NeutrAvidin bound to the GLC polymer layer. For a control, PBS supplemented with 0.05% Tween 20, which is a running buffer, was flowed. […] After the measurement, the surface of the sensor chip was regenerated using 0.85% phosphoric acid or PBST. […] The equilibrium dissociation constant KD was calculated using the equation KD=Kd/Ka.
# [5] = test system: LPS-induced sepsis model BALB/c mice; experiment: Survival rate in LPS-induced sepsis model; assay type: in vivo, mouse
# Experimental: The control was injected with the same volume of PBS. The results are illustrated in FIG. 18.
# [6] = test system: collagen-induced arthritis (CIA) model DBA/1J mice; experiment: Collagen-induced arthritis (CIA) model; assay type: in vivo, mouse
# Experimental: Specifically, chicken collagen type II (Sigma-Aldrich Co. LLC) and complete Freund's adjuvant (Sigma-Aldrich Co. LLC.) were mixed at 1:1 and emulsified. Then, 100 μg of the emulsified collagen solution was injected intradermally into the mouse tail to induce primary immunization, which was designated day 0. After 14 days of the primary immunization, the emulsified collagen solution was injected again intradermally into the mouse tail to induce secondary immunization (boosting).
# These plans included a total of seven experimental groups (n=8) and named as follows: (1) Non-treated, normal group (normal); (2) control (vehicle-treated) (CIA, n=8); (3) 2.5 nmol/g TIP1-treated group (CIA-TIP1 (2.5 nmol/g)); (4) 5 nmol/g TIP1-treated group (CIA-TIP1 (5 nmol/g)); (5) 10 nmol/g TIP1-treated group (CIA-TIP1 (10 nmol/g)); (6) 5 μg/g prednisolone (conventional therapeutic agent for arthritis)-treated group (CIA-prednisolone (5 μg/g)); (7) 10 nmol/g TIP1-treated group in post-arthritis phase (PAP) (PAP CIA-TIP1 (10 nmol/g)). TIP1 and prednisolone were dissolved in saline and injected intraperitoneally. Then, changes in behavioral development and disorders such as apparent symptoms and body weight, mouse squeaking, foot volume, and arthritis index were analyzed. The results are illustrated in FIGS. 19(a) and 19(b) and 20(a)-20(d).
# Then, the mice were sacrificed on day 45 and joint tissues were sampled. Subsequently, 3D images and bone mineral density (BMD) of the joint tissues were analyzed through micro-computed tomography (Micro-CT). […] The results are illustrated in FIGS. 21 and 22.
# [7] = severe sepsis model, LPS 10 μg/g, TIP1 10 nmol/g
# [8] = TIP1 2.5, 5, 10 nmol/g i.p. daily, compared with prednisolone 5 mg/kg
sequence,measurement,setting,value
RQIKIWFQNRRMKWKKSHCRVLLI (TIP1),extracellular secretion of NO,[1],effectively decreased
same,intracellular expression level of NLRP3,[2],remarkably decreased
same,intracellular expression level of active caspase-1 (10 kDa),[2],remarkably decreased
same,intracellular expression level of mature IL-1β (17 kDa),[2],remarkably decreased
same,secretion level of IL-1β,[3],decreased
same,binding to TIR domain regions of TLR4,[4],binding to the C-terminal tail and the BB loop among the TIR domains of TLR4
same,survival rate compared with only LPS,"[5]; BALB/c mice, TIP1 10 nmol/g and LPS 5 or 10 μg/g, 5 days",increased survival rate
same,survival rate maintained for 5 days,"[5]; mild sepsis model, LPS 5 μg/g, TIP1 10 nmol/g",30%
same,decrease of survival rate after two days,[5]; [7],90%
same,survival rate maintained for one day,[5]; [7],100%
same,arthritis index increase,[6]; [8],inhibited
same,body weight loss caused by induction of arthritis,[6]; [8],inhibited
same,foot volume,[6]; [8],inhibited
same,squeaking,[6]; [8],inhibited
same,severely swollen foot (visual observation),"[6]; TIP1 i.p., FIG. 19(b)",alleviated similarly to the normal mice
same,"histopathological modification in cartilage, subchondral bone, femur, tibia and meniscus (H&E)","[6]; knee joint, once daily for 30 days",decreased
same,"bones damaged by the CIA model (Micro-CT 3D image, bone mineral density)","[6]; once daily for 30 days, sacrificed day 45",alleviated similarly to the normal mice
